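In this assay, cells in 96-well plates receive the compound at five concentrations for 48 hours. Endpoints are linearly interpolated between the surrounding concentrations. TGI: concentration producing complete growth inhibition.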
Assays:
Test in all cases: NCI-60 cell line screen, 48 h
UACC-257 melanoma = test system: UACC-257 melanoma
HCC-2998 colon = test system: HCC-2998 colon
NCI-H522 lung = test system: NCI-H522 lung
ACHN renal = test system: ACHN renal
OVCAR-4 ovarian = test system: OVCAR-4 ovarian
TK-10 renal = test system: TK-10 renal
NCI/ADR-RES ovarian = test system: NCI/ADR-RES ovarian
SF-295 CNS = test system: SF-295 CNS
CCRF-CEM leukemia = test system: CCRF-CEM leukemia
MDA-MB-435 = test system: MDA-MB-435
MOLT-4 leukemia = test system: MOLT-4 leukemia
SK-MEL-28 melanoma = test system: SK-MEL-28 melanoma
SK-OV-3 ovarian = test system: SK-OV-3 ovarian
M14 melanoma = test system: M14 melanoma
OVCAR-3 ovarian = test system: OVCAR-3 ovarian
OVCAR-5 ovarian = test system: OVCAR-5 ovarian
BT-549 breast = test system: BT-549 breast

SMILES | TGI (UACC-257 melanoma) | TGI (HCC-2998 colon) | TGI (NCI-H522 lung) | TGI (ACHN renal) | TGI (OVCAR-4 ovarian) | TGI (TK-10 renal) | TGI (NCI/ADR-RES ovarian) | TGI (SF-295 CNS) | TGI (CCRF-CEM leukemia) | TGI (MDA-MB-435) | TGI (MOLT-4 leukemia) | TGI (SK-MEL-28 melanoma) | TGI (SK-OV-3 ovarian) | TGI (M14 melanoma) | TGI (OVCAR-3 ovarian) | TGI (OVCAR-5 ovarian) | TGI (BT-549 breast)
Cn1c2ccccc2c(=O)c2[nH]c3ccccc3c21 | > 100 µM | > 100 µM | > 100 µM | > 100 µM | > 100 µM | > 100 µM | > 100 µM | > 100 µM | > 100 µM | > 100 µM | 75.9 µM | 59.5 µM | > 100 µM | > 100 µM | > 100 µM | > 100 µM | –
CC(C)C(NCc1c(O)ccc2c(-c3ccccc3)cc(=O)oc12)C(=O)O (stereo unspecified) | > 100 µM | > 100 µM | > 100 µM | > 100 µM | > 100 µM | > 100 µM | > 100 µM | > 100 µM | > 100 µM | > 100 µM | > 100 µM | > 100 µM | > 100 µM | > 100 µM | > 100 µM | > 100 µM | –
N#CC(C#N)=Cn1c(=S)[nH]c2ccccc21 | > 100 µM | > 100 µM | > 100 µM | > 100 µM | > 100 µM | > 100 µM | > 100 µM | > 100 µM | > 100 µM | > 100 µM | > 100 µM | > 100 µM | > 100 µM | > 100 µM | > 100 µM | > 100 µM | –
CC1=C(C(=O)Nc2ccc([N+](=O)[O-])cc2)C(c2ccccc2F)C(C(=O)Nc2ccc([N+](=O)[O-])cc2)=C(C)N1 | 48.7 µM | 29.1 µM | 35 µM | 39.8 µM | 89.8 µM | > 100 µM | – | 63 µM | 48.7 µM | – | 27.4 µM | > 100 µM | 79.7 µM | 49.4 µM | 39.8 µM | > 100 µM | –
Cc1cc(Cl)ccc1C1OC(=O)c2c1ccc1ccccc21 (stereo unspecified) | > 100 µM | > 100 µM | > 100 µM | > 100 µM | > 100 µM | > 100 µM | – | > 100 µM | > 100 µM | – | > 100 µM | > 100 µM | > 100 µM | > 100 µM | > 100 µM | > 100 µM | –
Nc1n[nH]c(CCc2nc(N)n[nH]2)n1 | > 100 µM | > 100 µM | > 100 µM | > 100 µM | > 100 µM | > 100 µM | – | > 100 µM | > 100 µM | – | > 100 µM | > 100 µM | > 100 µM | > 100 µM | > 100 µM | > 100 µM | –
OC(C/C=N/Nc1ccccc1)(C(F)(F)Cl)C(F)(F)Cl | > 10 µM | > 10 µM | > 10 µM | > 10 µM | > 10 µM | > 10 µM | > 10 µM | > 10 µM | > 10 µM | > 10 µM | – | > 10 µM | > 10 µM | > 10 µM | > 10 µM | – | –
CC(C)c1cc(OCC(O)CO)cc(C(C)C)c1 (stereo unspecified) | > 100 µM | > 100 µM | > 100 µM | > 100 µM | > 100 µM | > 100 µM | – | > 100 µM | > 100 µM | – | > 100 µM | > 100 µM | > 100 µM | > 100 µM | > 100 µM | > 100 µM | –
Cc1cccc(C(C)(C)C)c1NC(=O)CC1Sc2ccccc2NC1=O (stereo unspecified) | > 100 µM | > 100 µM | > 100 µM | > 100 µM | > 100 µM | > 100 µM | – | > 100 µM | > 100 µM | – | > 100 µM | > 100 µM | > 100 µM | > 100 µM | > 100 µM | > 100 µM | –
CCc1cc2c(oc3cc(C)ccc32)c(=O)n1C | > 10 µM | > 10 µM | > 10 µM | > 10 µM | > 10 µM | > 10 µM | – | > 10 µM | > 10 µM | > 10 µM | > 10 µM | – | > 10 µM | > 10 µM | > 10 µM | > 10 µM | > 10 µM
Cc1ccccc1N=NC(C(=O)c1ccccc1)C(=O)c1ccccc1 | > 100 µM | > 100 µM | 39 µM | > 100 µM | 85.3 µM | > 100 µM | – | > 100 µM | 53.9 µM | – | 74.3 µM | > 100 µM | 88.4 µM | 39.1 µM | > 100 µM | 81.2 µM | –
Cc1ccc(NC(=O)C(=O)Cc2cc[n+]([O-])cc2)cc1 | > 100 µM | > 100 µM | > 100 µM | > 100 µM | > 100 µM | > 100 µM | – | > 100 µM | > 100 µM | – | > 100 µM | > 100 µM | > 100 µM | > 100 µM | > 100 µM | > 100 µM | –
C=CCN1CN(c2ccccc2)C2(CCN(CCCC3(c4ccc(F)cc4)OCCO3)CC2)C1=O | 33.3 µM | 35.6 µM | 36.7 µM | 48.3 µM | – | 33.5 µM | 28.2 µM | 33 µM | 41.4 µM | – | 39.6 µM | 30.8 µM | 43.3 µM | 30.6 µM | 27.7 µM | 23.8 µM | –
O=[N+]([O-])c1cccc(C2=NOC3C4CCC(C4)C23)c1 (stereo unspecified) | > 100 µM | > 100 µM | > 100 µM | > 100 µM | > 100 µM | > 100 µM | – | > 100 µM | – | – | > 100 µM | > 100 µM | > 100 µM | > 100 µM | > 100 µM | > 100 µM | –
CCC1CN2CCC3(c4ccccc4)CC(C(=O)OC)=CC1C23 (stereo unspecified) | 32 µM | 30.7 µM | 27.2 µM | 30.4 µM | 27.8 µM | 58.6 µM | – | 33.1 µM | > 100 µM | – | > 100 µM | 31.5 µM | 26.5 µM | 28.2 µM | 33.8 µM | 20.6 µM | –

From PubChem BioAssay (NCI)
